Experimental data published in patent US20210214303A1, “SCORPION VENOM BENZOQUINONE DERIVATIVES AND USES THEREOF” (priority 2018, published 2021).
Converted amounts (≈) assume the structure as drawn.

Key:
[1] = tested on: Staphylococcus aureus; experiment: broth microdilution assay (MIC); format: cell-based; conditions: S. aureus, read-out: minimum inhibitory concentration (MIC)
Procedure: FIG. 3D illustrates the determination of the minimal inhibitory concentrations (MICs) of the red and blue 1,4 benzoquinones against Staphylococcus aureus. The MICs determined by the broth microdilution assay are 4 μg/mL for the red 1,4 benzoquinone and 6 μg/mL for the blue 1,4 benzoquinone. Ampicillin was used as a positive control. Each result is reported as the mean±SD.
This difference was confirmed using a broth microdilution assay (FIG. 3D). The minimum inhibitory concentration (MIC) for S. aureus growth was 4 μg/mL for the red 1,4 benzoquinone and 6 μg/mL for the blue 1,4 benzoquinone (FIG. 3D, Table 1). Ampicillin (MIC=0.5 μg/mL) was used as a positive control (ESCMID Eo (2003) Clin. Microbiol. Infect. 9: ix-xv; Pieterse et al., (2010) Brazil. J. Microbiol. 41: 133-145). These compounds were bactericidal at their MICs, killing 90% of S. aureus in 6 h and 99.9% in 24 h (Table 2).

[2] = tested on: M. tuberculosis; conditions: related compounds from the literature (Tran et al. 2004); cited from earlier work

| SMILES | MIC [1] [µg/mL] | MIC [2] [µg/mL] |
| --- | --- | --- |
| CC1(C)S[C@@H]2[C@H](NC(=O)[C@H](N)c3ccccc3)C(=O)N2[C@H]1C(=O)O [Ampicillin, reference compound] | 0.5 (≈ 1.43 µM) | – |
| O=C1C=CC(=O)C=C1 [1,4-benzoquinone] | – | 25 (≈ 231 µM) |
| O=C1C=CC(=O)c2ccccc21 [1,4-napthoquinone] | – | 100 (≈ 632 µM) |
